Experimental data taken from article PMC12652692, “Synthesis and In Vitro Anticancer Evaluation of Novel Phosphonium Derivatives of Chrysin” (International Journal of Molecular Sciences, 2025).

Assays:
[1] = test system: non-tumor CHO cells; assay: CellTiter-Glo Luminescent Cell Viability Assay; format: cell-based, Chinese hamster; settings: 48 h; for IC50: Cricetulus griseus, non-tumor CHO cells, read-out: Estimated IC50
Protocol: (§1) Given their potent antiproliferative effects on tumor cells, two conjugates were selected for testing on non-tumor CHO cells to investigate their selectivity. […] Cell viability of non-tumor CHO cells was assessed using the CellTiter-Glo Luminescent Cell Viability Assay (Promega, Madison, WI, USA), following treatment with 3a and 3f. Stock solutions (10 mM in DMSO) were stored frozen until use. CHO cells were cultured in complete DMEM (low glucose, 1 g/L) supplemented with 10% fetal bovine serum, 1% GlutaMAX-I, 1% non-essential amino acids, and 0.1% penicillin–streptomycin. Cells were seeded into opaque 96-well plates (5000 cells/100 µL/well), with peripheral wells filled with sterile PBS to minimize edge effects. After overnight incubation (37 °C, 5% CO2), cells were treated with increasing concentrations of the compounds (10^−5, 10^−6, and 10^−7 M) diluted in complete DMEM. Untreated cells served as controls, and complete DMEM was used to determine background luminescence. DMSO controls corresponding to the solvent concentrations of each treatment condition were also included; no significant effect on cell viability was observed. After 48 h, CellTiter-Glo reagent was added, and luminescence was measured using an EnSpire AlphaLisa microplate reader (Perkin Elmer). Relative light unit (RLU) values were normalized to untreated controls (100% viability). Non-linear regression analysis was performed in GraphPad Prism 8.0.1 to estimate IC50 values by fitting sigmoidal dose–response curves (log[inhibitor] vs. normalized response, variable slope).

[2] = CellTiter-Glo Luminescent Cell Viability Assay; format: cell-based, Chinese hamster; settings: Chinese hamster, CHO cells (non-tumor), CHO cells, 10^−6 M
Protocol: as §1

[3] = test system: 60 human cancer cell lines; set-up: method as in doi:10.3311/PPch.21919, PMID 34874114; settings: previous work ref 24, 26; cited from earlier work

Structure (SMILES)	cell viability ([1]; CHO cells, 10^−6 M)	IC50 [1] [nM]	viability at 48 h [2] [%]	antiproliferative effects (in words) [3]
O=c1cc(-c2ccccc2)oc2cc(OCCCC[P+](c3ccccc3)(c3ccccc3)c3ccccc3)cc(O)c12 [3a]	minimally affected	2650		
COc1c(C)cc([P+](CCCCOc2cc(O)c3c(=O)cc(-c4ccccc4)oc3c2)(c2cc(C)c(OC)c(C)c2)c2cc(C)c(OC)c(C)c2)cc1C [3f]		1150	60.2 ± 2.9	
O=c1cc(-c2ccccc2)oc2cc(O)cc(O)c12 [compound 2, 5,7-dihydroxyflavone, reference compound]				does not exert remarkable antiproliferative effects
